The values that follow come from patent US20240269215A1, “NUTRITIONAL COMPOSITION FOR MUSCLE MASS, STRENGTH AND FUNCTION” (N.V. Nutricia, priority 2021, published 2024).

In data set [1] the test system is Muscle Protein Synthesis (MPS). The following applies: same experimental protocol, earlier work; cited from earlier work.
A short description of data set [2]: Leucine bioavailability (plasma leucine from dry blood spots) in aged mice. In kind it is in vivo. How it is done: Aged mice (animal model: see example 1) were fed with one of the 4 supplements at TO and after 10 minutes a droplet of blood from the tail was collected and stamped on a card. […] The results are plotted in FIG. 2A. Since feces was not collected, it was not possible to precisely calculate the N in- and output. […] Summarized, the amount of leucine present in the intact protein was known from the analyses of the pure protein sources (data sheets available). […] Since fasted mice also show a baseline level of plasma leucine, these values were then deducted from the obtained leucine plasma values (column D in table below). […] It was then calculated the contribution of the increase from the intact Leu (column E) and from the added free leucine (column F).

Structures are written as SMILES. “And” between values parts separate entries of the source, which are not always exact repeats. Identical values can stand only once.

In the case of `CC(C)C[C@H](N)C(=O)O` [free leucine, L-leucine], the “anabolic (MPS) response in aged mice, Dijk (2018)” value in data set [1] is “did not show an anabolic response”. In data set [2], the “bioavailability factor of leucine (rise of plasma leucine per mg of leucine consumed)” value is 17.4 mmol/L/mg and 17.3 mmol/L/mg.
